Laboratory results: patent US5962013A, “Monolithic matrix transdermal delivery system for administering molsidomine” (priority 1998, dated 1999)
Read-outs that look alike come from different tables or passages of the source.

Tests used:
[1] = cited from earlier work
[2] = cited from earlier work; remark: listed apart in the source
[3] = system: Rhesus monkeys; conditions: cited from earlier work
[4] = administered orally; cited from earlier work
[5] = cited from earlier work; remark: listed apart in the source
[6] = cited from earlier work; remark: listed apart in the source
[7] = in vivo
Description: It is necessary to combine both the oral dose and the pharmacokinetics data to estimate the target flux of ketorolac. For an oral dosage regimen of ketorolac tromethamine, it is recommended that 10 mg be given every 6 hours as needed for short-term management of moderate to severe pain.

[8] = oral doses; cited from earlier work
[9] = system: patients with coronary heart disease; conditions: single oral dose of 2 mg; cited from earlier work
[10] = cited from earlier work; for Solubilities: saturated
[11] = system: rats; conditions: rat, not told; cited from earlier work
[12] = cited from earlier work; remark: listed apart in the source
[13] = in vitro skin flux of ketorolac; conditions: Table 5
Description: Generally, the protocol was as follows.
Human cadaver epidermis was removed carefully from dermatoned full thickness skin after the skin had been heated in deionized water at 60° C. for one to two minutes. The stripped epidermis was placed between two polyethylene plastic sheets and refrigerated at -20° C. until use. Discs of the epidermis having a diameter of 5/8" were punched out with a die and tested for leakage by soaking the epidermis in water, then spreading it flat on a plastic sheet, and pressing the top of the epidermis lightly a few times with a piece of laboratory tissue. Leakage of the epidermis was detected by appearance of wet spots on the tissue.
Epidermis discs proving to be free of leaks were placed on top of a receiver cell of a modified Franz vertical diffusion cell assembly, and a donor cell was placed on top of the receiver cell. A small magnetic stir bar was inserted through the sampling port into the donor cell compartment. The diffusion cell assemblies were clamped together and transferred to a skin permeation room (controlled at 32° C.) The receiver cell compartments were filled with 8.0 ml of isotonic phosphate buffer, pH 7.0. […]
The quantity of ketorolac tromethamine in each sample was assayed by HPLC analytical methods.

[14] = system: coronary strips; conditions: vasodilation; cited from earlier work

## O=C(c1ccccc1)c1ccc2n1CC[C@@H]2C(=O)O [(-)-S isomer]
[1]; A. Guzman et al., 1986
  analgesic potency relative to (+)-R isomer: many times greater analgesic potency

## O=C(c1ccccc1)c1ccc2n1CCC2C(=O)O (centres unmarked) [Ketorolac tromethamine]
[2]; PG (50%), Oleic acid (50%)
  Solubilities: 110 mg/mL
[2]; propylene glycol (PG)
  Solubilities: 200 mg/mL
[2]; water
  Solubilities: 725 mg/mL
[1]; administered orally
  analgesic potency relative to aspirin: about 180 times
  analgesic potency relative to indomethacin: 3-6 times
  analgesic potency relative to naproxen: 25-50 times
[3]; rhesus monkey
  estimated in vivo skin flux: very high
[4]
  anti-inflammatory potency relative to indomethacin or naproxen: 2-3 times
[5]; in vivo
  volume of distribution: 7.7 lit/70 kg
[5]; oral
  oral bioavailability: 80-100%
[6]; aqueous solutions pH 4-8, 25° C.
  shelf-life: very long shelf-life
[6]
  aqueous solubility relative to ketorolac: greater aqueous solubility than ketorolac
[6]; decarboxylation, especially in the presence of oxygen
  light sensitivity: light sensitive
[6]; pH 4-8
  stability in aqueous solutions: extremely stable

## O=C(c1ccccc1)c1ccc2n1CCC2C(=O)O (centres unmarked) [Ketorolac]
[3]; percutaneous, solution formulations
  time to high Cmax: ≤ 8 h
[3]; solution formulations
  enhancement of percutaneous absorption by propylene glycol and linoleic acid, or propylene glycol and oleic acid: effective
[5]; in vivo
  total clearance: 1750 ml/hr/70 kg
[5]; oral administration of 10 mg, 6 hour
  plasma concentration at 6 hour: 200 to 300 ng/mL
[5]; oral administration of 10 mg
  Cmax: about 0.8 μg/ml
[7]
  amount to be delivered during a 24 hour period: 12.5 to 19.2 mg

## CCOC(=O)[N-]c1cn(N2CCOCC2)n[o+]1 [Molsidomine, N-5-ethoxycarbonyl-3-morpholinosydnonimine]
[8]
  bioavailability: 44%
[9]
  duration of anti-anginal effects: 3 to 5 h
[10]; CHCl3
  solubility: freely soluble
[10]; Glycerin, 25° C.
  Solubilities: 1.80%
[10]; Glycol salicylate, 25° C.
  Solubilities: 15.1%
[10]; Isopropyl myristate, 25° C.
  Solubilities: 0.09%
[10]; Octyl.decyl oil, 25° C.
  Solubilities: 0.36%
[10]; Oleic Acid, 25° C.
  Solubilities: 1.37%
[10]; PEG 400, 25° C.
  Solubilities: 5.23%
[10]; Propylene glycol, 25° C.
  Solubilities: 6.37%
[10]; dilute HCl, ethanol, ethyl acetate, methanol
  solubility: soluble
[10]; ether, petroleum ether
  solubility: very slightly soluble
[10]; propylene glycol and a variety of organic solvents
  solubility: soluble
[10]; water, acetone, benzene
  solubility: sparingly soluble
[11]
  estimated flux: ~399 μg/hr-cm^2
[12]; 25° C.
  pKa: 3.34
[12]; pH 5-7, 20° C.
  t90: 2.6 years

## CC(O)CO (centres unmarked) [PG, propylene glycol]
[13]
  Effect on skin flux (factorial design): 8.72

## N#CCN(N=O)N1CCOCC1 [SIN-1A]
[14]
  dependence of activity on cysteine: active in both the presence and the absence of cysteine

## O=[N+]([O-])OCC(CO[N+](=O)[O-])O[N+](=O)[O-] [nitroglycerin]
[14]
  dependence of activity on cysteine: depends on the presence of cysteine
